Tests used:
HRP [1] = biological target: T1, HRP (Armoracia rusticana, UniProt P00433); assay: Inhibition of 1 mU of HRP activity using heavy metal salts and other compounds as stop reagents (ABTS, 96-well plate); details: 1 mU HRP; for Absorbance at 405 nm: higher concentration of Table 1
T1 sequence (P00433 31-338): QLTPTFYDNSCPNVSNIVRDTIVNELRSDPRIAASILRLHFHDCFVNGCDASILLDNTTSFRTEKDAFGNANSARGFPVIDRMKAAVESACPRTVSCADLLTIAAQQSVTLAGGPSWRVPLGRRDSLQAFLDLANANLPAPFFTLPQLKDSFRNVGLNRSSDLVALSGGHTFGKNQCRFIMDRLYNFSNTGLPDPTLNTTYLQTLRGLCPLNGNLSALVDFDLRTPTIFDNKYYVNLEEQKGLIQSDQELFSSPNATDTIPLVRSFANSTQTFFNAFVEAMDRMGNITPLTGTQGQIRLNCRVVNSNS

HRP [2] = assay: Inhibition of 1 mU of HRP activity using acidified SDS solution as stop reagent (ABTS); format: biochemical, horseradish (Armoracia rusticana); details: acidification of the reaction mixture to pH about 2.5 to 4.2; SDS final concentration between 0.25% and 2.5% weight by volume
Description: A solution of 5% [w/v] sodium dodecyl sulfate acidified with 0.25 M hydrochloric acid was used as a stop reagent to inhibit 1 mU peroxidase enzymatic activity of HRP. […] 100 μl of stop reagent were added.
Another experiment was performed in which two different SDS concentrations, 5% and 0.5% [w/v] in an acidified solution were compared.

[3] = tested on: horseradish peroxidase (HRP); assay: Inhibition of ABTS turnover catalyzed by a low amount of HRP (sandwich ELISA, non-induced Jurkat cell lysate); format: biochemical, horseradish (Armoracia rusticana); details: SDS 1% or 5%, high concentrations of oxalic acid or sulfuric acid
Description: FIG. 1, A and B: inhibition of ABTS turnover catalyzed by a low amount of HRP (detection of a low amount of mono- and oligosomes in Jurkat cells; further details are given in Example 1). The ordinate indicates absorbance. Groups of bars represent comparative measurements at time points after the addition of stop reagents as indicated: (‡)—control, ABTS solution incubated without HRP, no stop reagent added; (a) to (k)—ABTS solution incubated with HRP and subsequently mixed with stop reagent as indicated: […] Jurkat cells were cultured and subsequently divided into two culture dishes. In one dish the cells were treated with 1 μg/ml CAM (Camptothecin) to induce apoptosis, thereby leading to the formation of mono and oligonucleosomes, the target antigen. After an incubation period of 4 hours the cells of both dishes were harvested separately by centrifugation, lysed by the detergent contained in the Cell Death Detection ELISA Plus (Roche Diagnostics GmbH, Mannheim, Germany; Catalog No. 1920685), and frozen. The mono and oligonucleosomes consisting of DNA and histones H2A, H2B, H3 and H4 were detected in thawed cell homogenate by way of a sandwich ELISA. Antigen was captured with a first monoclonal antibody against histone from the Cell Death Detection ELISA Plus kit. The antibody was coated onto the walls of a 96-well microplate. The detection antibody was a DNA-specific polyclonal antibody conjugated with horseradish peroxidase. Non-induced and CAM-induced Jurkat cells yielded low and high amounts of target antigen, thereby leading to low and high absolute amounts of horseradish peroxidase enzymatic activity in the respective wells. Into each well of the 96-well microplate an aliquot of 100 μl of ABTS Solution (Roche Diagnostics GmbH, Mannheim, Germany; Roche Applied Science, product no. 11684302001) was added. After an incubation for 8 minutes at room temperature, 100 μl of either distilled water or a stop reagent as indicated in the legend to FIG. 1 was added.

[4] = tested on: horseradish peroxidase (HRP); assay: Inhibition of ABTS turnover catalyzed by a high amount of HRP (sandwich ELISA, CAM-induced Jurkat cell lysate); format: biochemical, horseradish (Armoracia rusticana)
Description: FIG. 2, A and B: inhibition of ABTS turnover catalyzed by a high amount of HRP detection of a high amount of mono- and oligosomes in Jurkat cells; further details are given in Example 1. All other designations are the same as in FIG. 1. Jurkat cells were cultured and subsequently divided into two culture dishes. In one dish the cells were treated with 1 μg/ml CAM (Camptothecin) to induce apoptosis, thereby leading to the formation of mono and oligonucleosomes, the target antigen. After an incubation period of 4 hours the cells of both dishes were harvested separately by centrifugation, lysed by the detergent contained in the Cell Death Detection ELISA Plus (Roche Diagnostics GmbH, Mannheim, Germany; Catalog No. 1920685), and frozen. The mono and oligonucleosomes consisting of DNA and histones H2A, H2B, H3 and H4 were detected in thawed cell homogenate by way of a sandwich ELISA. Antigen was captured with a first monoclonal antibody against histone from the Cell Death Detection ELISA Plus kit. The antibody was coated onto the walls of a 96-well microplate. The detection antibody was a DNA-specific polyclonal antibody conjugated with horseradish peroxidase. Non-induced and CAM-induced Jurkat cells yielded low and high amounts of target antigen, thereby leading to low and high absolute amounts of horseradish peroxidase enzymatic activity in the respective wells. […]

[5] = Table 2b, 6 min, stop reagent added after 8 min incubation
[6] = Table 2b, 9 min, stop reagent added after 8 min
[7] = Table 2b, 15 min, stop reagent added after 8 min
[8] = Table 2b, 30 min, stop reagent added after 8 min
[9] = Table 2b, 45 min, stop reagent added after 8 min
[10] = Table 2b, 60 min, stop reagent added after 8 min
[11] = Table 2b, 180 min, stop reagent added after 8 min

SMILES | Absorbance at 405 nm (HRP [1]; [5]) | Absorbance at 405 nm (HRP [1]; [6]) | Absorbance at 405 nm (HRP [1]; [7]) | Absorbance at 405 nm (HRP [1]; [8]) | Absorbance at 405 nm (HRP [1]; [9]) | Absorbance at 405 nm (HRP [1]; [10]) | Absorbance at 405 nm (HRP [1]; [11]) | Decoloration of the dye (HRP [1]; ABTS) | Inhibition of the reaction (FIG. 1) [3] | also measured
[F-].[Na+] [(viii), NaF] | 1.176 | 1.343 | 1.424 | 1.572 | 1.721 | 1.818 | 2.107 | – | – | Inhibition of HRP (in words) (HRP [1]; ABTS): affected inhibition, however only partially
[Na+].[OH-] [(xiii), NaOH] | – | – | – | – | – | – | – | decoloration of the dye | – | Absorbance at 405 nm (HRP [1]; Table 2a, 6 min, stop reagent added after 8 min incubation): 1.036; Absorbance at 405 nm (HRP [1]; Table 2a, 9 min, stop reagent added after 8 min): 0.878; Absorbance at 405 nm (HRP [1]; Table 2a, 15 min, stop reagent added after 8 min): 0.027; Absorbance at 405 nm (HRP [1]; Table 2a, 30 min, stop reagent added after 8 min): 0.027; Absorbance at 405 nm (HRP [1]; Table 2a, 45 min, stop reagent added after 8 min): 0.027; Absorbance at 405 nm (HRP [1]; Table 2a, 60 min, stop reagent added after 8 min): 0.027; Absorbance at 405 nm (HRP [1]; Table 2a, 180 min, stop reagent added after 8 min): 0.026
[Na+].[Na+].[Na+].[O]=[V]([O-])([O-])[O-] [(vii), Sodium orthovanadate] | 1.173 | 0.115 | 0.096 | 0.089 | 0.088 | 0.092 | 0.100 | decoloration of the dye | – | –
CCCCCCCCCCCCOS(=O)(=O)[O-].[Na+] [SDS, sodium dodecyl sulfate] | – | – | – | – | – | – | – | – | complete inhibition | Inhibiting peroxidase enzymatic activity (in words) (HRP [2]): very effective; Inhibition of the high amount of HRP activity (FIG. 2) [4]: not able to inhibit completely
[Cl][Ni][Cl] [(ix), Nickel (II) chloride] | 1.175 | 2.241 | 2.999 | 3.719 | 3.999 | 3.715 | 3.999 | – | – | –
O=S(=O)(O)O [sulfuric acid] | – | – | – | – | – | – | – | – | complete inhibition | –
O=C(O)C(=O)O [oxalic acid] | – | – | – | – | – | – | – | – | complete inhibition | Inhibition of the high amount of HRP activity (FIG. 2) [4]: not able to inhibit completely
NC(=O)C(=O)[O-].[Na+] [(xi), Sodium Oxamate] | 1.182 | 1.776 | 2.525 | 3.091 | 3.097 | 3.095 | 2.865 | – | – | –
N#C[S-].[K+] [(xii), KSCN] | 1.179 | 1.207 | 1.290 | 1.201 | 1.086 | 0.989 | 0.849 | decoloration of the dye | – | –

From patent US9453842B2, “Inhibition of peroxidase enzymatic activity” (Roche Molecular Systems, Inc., priority 2006, dated 2016)
